Common to all, as to type: cell-based, human
Assay [1] concerns Colo205 cells. As to the kind of experiment: Apoptosis, Roche Cell Death ELISA and Caspase-3/7 (FIG. 2). The settings on record: for apoptosis: agent alone, 24 h. The protocol: (§1) A549 cells were grown in RPMI-1640 supplemented with 25 mM HEPES, 10 mM glutamine and 10% fetal bovine serum and maintained at 37° C. and 5% CO2 in a humid incubator. Colo205 and MDA-MB-468 cells were grown in DMEM supplemented with 25 mM HEPES, 10 mM glutamine, 4.5 g/L d-glucose, and 10% fetal bovine serum. Assays were performed in 96 well microtiter plates with optimum seeding densities for each cell line.
(§2) Apoptosis was measured using the Roche Cell Death ELISA^Plus kit (catalog 1 774 425) which detects fragmented nucleosomal DNA that is generated during apoptosis.
(§3) Cell death was measured using the Roche Cell Death ELISA^Plus kit and Promega Apo-ONE™ Homogeneous Caspase-3/7 Assay. Total cell number was measured using the Celltiter Glo® Luminescent Cell Viability Assay and cell proliferation was measured with the Roche BrdU Cell Proliferation ELISA assay.

Assay [2] concerns A549 cells. As to the kind of experiment: Cell proliferation, BrdU ELISA and Celltiter Glo (FIG. 1). Background: Incorporation of labelled thymidine or its analogues reports DNA synthesis.
Assay [3] deals with MDA-MB-468 cells. As to the kind of experiment: Apoptosis, Roche Cell Death ELISA and Caspase-3/7 (FIG. 3). The note with it: for apoptosis: agent alone, 24 h. The procedure:
as §1, §2, §3
In general terms: In an ELISA, binding on a coated surface is turned into a signal by an enzyme label.

Assay [4] has as its system Colo205 cells. As to the kind of experiment: Cell proliferation, BrdU ELISA and Celltiter Glo (FIG. 2). The procedure:
(§4) Colo205 and MDA-MB-468 cells were grown in DMEM supplemented with 25 mM HEPES, 10 mM glutamine, 4.5 g/L d-glucose, and 10% fetal bovine serum. Assays were performed in 96 well microtiter plates with optimum seeding densities for each cell line.
(§5) Cell proliferation was measured using the Celltiter Glo® Luminescent Cell Viability Assay available from Promega Corporation and the Roche BrdU Cell Proliferation ELISA assay.
as §3

For assay [5], the system named is MDA-MB-468 cells. As to the kind of experiment: Cell proliferation, BrdU ELISA and Celltiter Glo (FIG. 3). The protocol:
as §4, §5, §3

The subject of assay [6] is A549 cells. As to the kind of experiment: Apoptosis, Roche Cell Death ELISA and Caspase-3/7 (FIG. 1). The note with it: for apoptosis: agent alone, 24 h. The protocol:
as §1, §2, §3

[7] abbreviates: 1:1 molar ratio with GW572016, 24 h.

Structures are written as SMILES.

As to `Nc1ncnc2c1c(-c1cccc(OCc3ccccc3)c1)cn2[C@H]1C[C@@H](CN2CCCC2)C1` [GSK621659A], the “apoptosis, combination versus either agent alone” value with Colo205 cells [1] (setting [7]), in the assay on MDA-MB-468 cells [3] (setting [7]) and in the assay with A549 cells [6] (setting [7]) was “more effective than either agent alone” in each case. The apoptosis entry with Colo205 cells [1], in the assay with MDA-MB-468 cells [3] and with A549 cells [6] was “increased apoptosis” throughout. Also, the “cell proliferation, combination versus either agent alone” value in the assay with A549 cells [2] (setting [7]), in the assay with Colo205 cells [4] (setting [7]) and in the assay on MDA-MB-468 cells [5] (setting [7]) was “more effective than either agent alone” throughout. Further, the cell proliferation entry in the assay on A549 cells [2] (agent alone, 24 h) is given as “decreased cell proliferation”; in the assay on Colo205 cells [4] (agent alone, 24 h), “decreased cell proliferation”; in the assay with MDA-MB-468 cells [5] (agent alone, 24 h), “decreased cell proliferation”.

Regarding `CS(=O)(=O)CCNCc1ccc(-c2ccc3ncnc(Nc4ccc(OCc5cccc(F)c5)c(Cl)c4)c3c2)o1` [GW572016, N-{3-Chloro-4-[(3-fluorobenzyl)oxy]phenyl}-6-[5-({[2-(methanesulphonyl)ethyl]amino}methyl)-2-furyl]-4-quinazolinamine ditosylate monohydrate], the apoptosis result in the assay on Colo205 cells [1], in the assay on MDA-MB-468 cells [3] and with A549 cells [6] was “increased apoptosis” each time.

For the origin of these results see patent US20090203718A1, “CANCER TREATMENT METHOD” (SmithKline Beecham (Cork) Ltd., priority 2006, published 2009).
